# Bridge positions count the residues as written; N and C are the ends. Square brackets hold non-standard residues; d marks the D form. Peptide text beside a SMILES is read from it. * marks the point of attachment. ξ: configuration not given here. Phe(4-COOH) = N[C@@H](Cc1ccc(C(=O)O)cc1)C(=O)O; Bip = N[C@@H](Cc1ccc(-c2ccccc2)cc1)C(=O)O; Phe(3-Me) = Cc1cccc(C[C@H](N)C(=O)O)c1; Cha = N[C@@H](CC1CCCCC1)C(=O)O; Cit = NC(=O)NCCC[C@H](N)C(=O)O; Thr(3ξ) = CC(O)[C@H](N)C(=O)O; hSer = N[C@@H](CCO)C(=O)O; Carboxymethyl = O=C(O)C*; Orn = NCCC[C@H](N)C(=O)O; Aun = NCCCCCCCCCCC(=O)O; Dab = NCC[C@H](N)C(=O)O; AEEA = NCCOCCOCC(=O)O
# Target: T1, PD-1/PD-L1 interaction (PE-labeled human PD-L1-Ig binding to Jurkat cell line over-expressing human PD-1) (Homo sapiens, UniProt Q15116)
# T1 construct: expressed in transfected cells; host or cells: Jurkat
# Test: Jurkat-PD-1 Cell Binding High-Content Screening Assay (CBA)
# Type: cell-based
# Details: Jurkat cell line over-expressing human PD-1; PE-labeled PD-L1-Ig 20 nM final; read-out: Jurkat hPD1-PDL1 IC50
# Outline: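 Jurkat-hPD-1 cells, DMEM/10% FCS; cpd 2 h 37° C; PE-PD-L1-Ig 20 nM final, 1 h; 4% PFA fix + Hoechst 33342, 3× dPBS wash; high-content imaging read-out.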
# T1 sequence (Q15116 25-288): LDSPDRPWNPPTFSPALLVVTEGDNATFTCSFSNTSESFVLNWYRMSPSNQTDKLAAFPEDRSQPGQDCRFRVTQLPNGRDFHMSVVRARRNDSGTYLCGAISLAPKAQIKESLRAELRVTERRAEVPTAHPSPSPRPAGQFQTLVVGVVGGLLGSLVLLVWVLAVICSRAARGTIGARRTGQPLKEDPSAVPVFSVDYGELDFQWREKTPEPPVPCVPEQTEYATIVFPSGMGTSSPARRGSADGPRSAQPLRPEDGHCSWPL
row,Compound,IC50 [nM]
1,Cc1cccc(C[C@@H]2NC(=O)[C@H](CC(=O)O)NC(=O)[C@H](Cc3ccc(OCC(=O)O)cc3)NC(=O)[C@H](C(C)O)NC(=O)CSC[C@@H](C(=O)N[C@@H](CCCCN)C(=O)NCCCCCCCCCCC(=O)O)NC(=O)[C@H](CCCCN)NC(=O)[C@H](C(C)C)NC(=O)[C@H](CC3CCCCC3)NC(=O)[C@H](CCN)NC(=O)[C@@H](CC(C)C)NC(=O)[C@H](CCCN)NC(=O)[C@H](C(C)C)NC(=O)[C@H](Cc3ccc(-c4ccccc4)cc3)NC(=O)[C@H](C(C)C)NC2=O)c1 (stereo partly drawn) [Compound 3472] ({CH2CO}-[Thr(3ξ)]Y(Carboxymethyl)D[Phe(3-Me)]V[Bip]V[Orn][dL][Dab][Cha]VKCK[Aun]-OH; thioether N-14),13.3
2,Cc1cccc(C[C@@H]2NC(=O)[C@H](CC(=O)O)NC(=O)[C@H](Cc3ccc(OCC(=O)O)cc3)NC(=O)[C@H](CCCNC(=N)N)NC(=O)CSC[C@@H](C(=O)N[C@@H](CCCCN)C(=O)NCCCCCCCCCCC(=O)O)NC(=O)[C@H](C(C)O)NC(=O)[C@H](C(C)C)NC(=O)[C@H](CC3CCCCC3)NC(=O)[C@H](CCN)NC(=O)[C@@H](CC(C)C)NC(=O)[C@H](CCCN)NC(=O)[C@H](Cc3ccc(O)cc3)NC(=O)[C@H](Cc3ccc(-c4ccccc4)cc3)NC(=O)[C@H](C(C)C)NC2=O)c1 (stereo partly drawn) [Compound 3473] ({CH2CO}-RY(Carboxymethyl)D[Phe(3-Me)]V[Bip]Y[Orn][dL][Dab][Cha]V[Thr(3ξ)]CK[Aun]-OH; thioether N-14),15.1
3,Cc1cccc(C[C@@H]2NC(=O)[C@H](CC(=O)O)NC(=O)[C@H](Cc3ccc(OCC(=O)O)cc3)NC(=O)[C@H](CCCNC(=N)N)NC(=O)CSC[C@@H](C(=O)N[C@@H](CCCCN)C(=O)NCCCCCCCCCCC(=O)O)NC(=O)[C@H](CCCN)NC(=O)[C@H](C(C)C)NC(=O)[C@H](CC3CCCCC3)NC(=O)[C@H](CCN)NC(=O)[C@@H](CC(C)C)NC(=O)[C@H](CCCN)NC(=O)[C@H](CCCNC(N)=O)NC(=O)[C@H](Cc3ccc(-c4ccccc4)cc3)NC(=O)[C@H](C(C)C)NC2=O)c1 [Compound 3474] ({CH2CO}-RY(Carboxymethyl)D[Phe(3-Me)]V[Bip][Cit][Orn][dL][Dab][Cha]V[Orn]CK[Aun]-OH; thioether N-14),11.8
4,Cc1cccc(C[C@@H]2NC(=O)[C@H](CC(=O)O)NC(=O)[C@H](Cc3ccc(OCC(=O)O)cc3)NC(=O)[C@H](CCCNC(=N)N)NC(=O)CSC[C@@H](C(=O)N[C@@H](CCCCN)C(=O)NCCCCCCCCCCC(=O)O)NC(=O)[C@H](C(C)O)NC(=O)[C@H](C(C)C)NC(=O)[C@H](CC3CCCCC3)NC(=O)[C@H](CCN)NC(=O)[C@@H](CC(C)C)NC(=O)[C@H](CCCN)NC(=O)[C@H](C(C)C)NC(=O)[C@H](Cc3ccc(-c4ccccc4)cc3)NC(=O)[C@H](C(C)C)NC2=O)c1 (stereo partly drawn) [Compound 3475] ({CH2CO}-RY(Carboxymethyl)D[Phe(3-Me)]V[Bip]V[Orn][dL][Dab][Cha]V[Thr(3ξ)]CK[Aun]-OH; thioether N-14),25.7
5,Cc1cccc(C[C@@H]2NC(=O)[C@H](CC(=O)O)NC(=O)[C@H](Cc3ccc(OCC(=O)O)cc3)NC(=O)[C@H](CCCNC(=N)N)NC(=O)CSC[C@@H](C(=O)NCCOCCOCC(=O)NCCCCCCCCCCC(=O)O)NC(=O)[C@H](C(C)O)NC(=O)[C@H](C(C)C)NC(=O)[C@H](CC3CCCCC3)NC(=O)[C@H](CCN)NC(=O)[C@@H](CC(C)C)NC(=O)[C@H](CCCN)NC(=O)[C@H](Cc3ccc(OCC(=O)O)cc3)NC(=O)[C@H](Cc3ccc(-c4ccccc4)cc3)NC(=O)[C@H](Cc3ccc(OCC(=O)O)cc3)NC2=O)c1 (stereo partly drawn) [Compound 3477] ({CH2CO}-RY(Carboxymethyl)D[Phe(3-Me)]Y(Carboxymethyl)[Bip]Y(Carboxymethyl)[Orn][dL][Dab][Cha]V[Thr(3ξ)]C[AEEA][Aun]-OH; thioether N-14),38.4
6,Cc1cccc(C[C@@H]2NC(=O)[C@H](CC(=O)O)NC(=O)[C@H](Cc3ccc(OCC(=O)O)cc3)NC(=O)[C@H](C(C)O)NC(=O)CSC[C@@H](C(=O)NCCOCCOCC(=O)NCCCCCCCCCCC(=O)O)NC(=O)[C@H](C(C)O)NC(=O)[C@H](C(C)C)NC(=O)[C@H](CC3CCCCC3)NC(=O)[C@H](CCN)NC(=O)[C@@H](CC(C)C)NC(=O)[C@H](CCCN)NC(=O)[C@H](Cc3ccc(OCC(=O)O)cc3)NC(=O)[C@H](Cc3ccc(-c4ccccc4)cc3)NC(=O)[C@H](Cc3ccc(OCC(=O)O)cc3)NC2=O)c1 (stereo partly drawn) [Compound 3478] ({CH2CO}-[Thr(3ξ)]Y(Carboxymethyl)D[Phe(3-Me)]Y(Carboxymethyl)[Bip]Y(Carboxymethyl)[Orn][dL][Dab][Cha]V[Thr(3ξ)]C[AEEA][Aun]-OH; thioether N-14),21.1
7,Cc1cccc(C[C@@H]2NC(=O)[C@H](CC(=O)O)NC(=O)[C@H](Cc3ccc(OCC(=O)O)cc3)NC(=O)[C@H](CCCNC(=N)N)NC(=O)CSC[C@@H](C(=O)NCCOCCOCC(=O)NCCCCCCCCCCC(=O)O)NC(=O)[C@H](C(C)O)NC(=O)[C@H](C(C)C)NC(=O)[C@H](CC3CCCCC3)NC(=O)[C@H](CCN)NC(=O)[C@@H](CC(C)C)NC(=O)[C@H](CCCN)NC(=O)[C@H](Cc3ccc(OCC(=O)O)cc3)NC(=O)[C@H](Cc3ccc(-c4ccccc4)cc3)NC(=O)[C@H](Cc3ccc(C(=O)O)cc3)NC2=O)c1 (stereo partly drawn) [Compound 3479] ({CH2CO}-RY(Carboxymethyl)D[Phe(3-Me)][Phe(4-COOH)][Bip]Y(Carboxymethyl)[Orn][dL][Dab][Cha]V[Thr(3ξ)]C[AEEA][Aun]-OH; thioether N-14),59.6
8,Cc1cccc(C[C@@H]2NC(=O)[C@H](CC(=O)O)NC(=O)[C@H](Cc3ccc(OCC(=O)O)cc3)NC(=O)[C@H](CCCNC(=N)N)NC(=O)CSC[C@@H](C(=O)NCCOCCOCC(=O)NCCCCCCCCCCC(=O)O)NC(=O)[C@H](C(C)O)NC(=O)[C@H](C(C)C)NC(=O)[C@H](CC3CCCCC3)NC(=O)[C@H](CCN)NC(=O)[C@@H](CC(C)C)NC(=O)[C@H](CCCNC(N)=O)NC(=O)[C@H](Cc3ccc(OCC(=O)O)cc3)NC(=O)[C@H](Cc3ccc(-c4ccccc4)cc3)NC(=O)[C@H](C(C)C)NC2=O)c1 (stereo partly drawn) [Compound 3480] ({CH2CO}-RY(Carboxymethyl)D[Phe(3-Me)]V[Bip]Y(Carboxymethyl)[Cit][dL][Dab][Cha]V[Thr(3ξ)]C[AEEA][Aun]-OH; thioether N-14),17.5
9,Cc1cccc(C[C@@H]2NC(=O)[C@H](CC(=O)O)NC(=O)[C@H](Cc3ccc(OCC(=O)O)cc3)NC(=O)[C@H](CCCNC(=N)N)NC(=O)CSC[C@@H](C(=O)NCCOCCOCC(=O)NCCCCCCCCCCC(=O)O)NC(=O)[C@H](C(C)O)NC(=O)[C@H](C(C)C)NC(=O)[C@H](CC3CCCCC3)NC(=O)[C@H](CCN)NC(=O)[C@@H](CC(C)C)NC(=O)[C@H](CCCNC(N)=O)NC(=O)[C@H](Cc3ccc(OCC(=O)O)cc3)NC(=O)[C@H](Cc3ccc(-c4ccccc4)cc3)NC(=O)[C@H](Cc3ccc(OCC(=O)O)cc3)NC2=O)c1 (stereo partly drawn) [Compound 3481] ({CH2CO}-RY(Carboxymethyl)D[Phe(3-Me)]Y(Carboxymethyl)[Bip]Y(Carboxymethyl)[Cit][dL][Dab][Cha]V[Thr(3ξ)]C[AEEA][Aun]-OH; thioether N-14),71.6
10,Cc1cccc(C[C@@H]2NC(=O)[C@H](CC(=O)O)NC(=O)[C@H](Cc3ccc(OCC(=O)O)cc3)NC(=O)[C@H](C(C)O)NC(=O)CSC[C@@H](C(=O)N[C@@H](CCN)C(=O)NCCCCCCCCCCC(=O)O)NC(=O)[C@H](CCO)NC(=O)[C@H](C(C)C)NC(=O)[C@H](CC3CCCCC3)NC(=O)[C@H](CCN)NC(=O)[C@@H](CC(C)C)NC(=O)[C@H](CCCN)NC(=O)[C@H](Cc3ccc(OCC(=O)O)cc3)NC(=O)[C@H](Cc3ccc(-c4ccccc4)cc3)NC(=O)[C@H](Cc3ccc(OCC(=O)O)cc3)NC2=O)c1 (stereo partly drawn) [Compound 3482] ({CH2CO}-[Thr(3ξ)]Y(Carboxymethyl)D[Phe(3-Me)]Y(Carboxymethyl)[Bip]Y(Carboxymethyl)[Orn][dL][Dab][Cha]V[hSer]C[Dab][Aun]-OH; thioether N-14),7.5
11,Cc1cccc(C[C@@H]2NC(=O)[C@H](CC(=O)O)NC(=O)[C@H](Cc3ccc(OCC(=O)O)cc3)NC(=O)[C@H](C(C)O)NC(=O)CSC[C@@H](C(=O)N[C@@H](CCN)C(=O)NCCCCCCCCCCC(=O)O)NC(=O)[C@H](CCO)NC(=O)[C@H](C(C)C)NC(=O)[C@H](CC3CCCCC3)NC(=O)[C@H](CCN)NC(=O)[C@@H](CC(C)C)NC(=O)[C@H](CCCN)NC(=O)[C@H](Cc3ccc(OCC(=O)O)cc3)NC(=O)[C@H](Cc3ccc(-c4ccccc4)cc3)NC(=O)[C@H](Cc3ccc(C(=O)O)cc3)NC2=O)c1 (stereo partly drawn) [Compound 3483] ({CH2CO}-[Thr(3ξ)]Y(Carboxymethyl)D[Phe(3-Me)][Phe(4-COOH)][Bip]Y(Carboxymethyl)[Orn][dL][Dab][Cha]V[hSer]C[Dab][Aun]-OH; thioether N-14),9.5
12,Cc1cccc(C[C@@H]2NC(=O)[C@H](CC(=O)O)NC(=O)[C@H](Cc3ccc(OCC(=O)O)cc3)NC(=O)[C@H](C(C)O)NC(=O)CSC[C@@H](C(=O)N[C@@H](CCN)C(=O)NCCCCCCCCCCC(=O)O)NC(=O)[C@H](C(C)O)NC(=O)[C@H](C(C)C)NC(=O)[C@H](CC3CCCCC3)NC(=O)[C@H](CCN)NC(=O)[C@@H](CC(C)C)NC(=O)[C@H](CCCN)NC(=O)[C@H](Cc3ccc(OCC(=O)O)cc3)NC(=O)[C@H](Cc3ccc(-c4ccccc4)cc3)NC(=O)[C@H](Cc3ccc(C(=O)O)cc3)NC2=O)c1 (stereo partly drawn) [Compound 3484] ({CH2CO}-[Thr(3ξ)]Y(Carboxymethyl)D[Phe(3-Me)][Phe(4-COOH)][Bip]Y(Carboxymethyl)[Orn][dL][Dab][Cha]V[Thr(3ξ)]C[Dab][Aun]-OH; thioether N-14),6.7
